Laboratory results taken from publication PMC12369846, “Structural Insights into Isovaleryl-Coenzyme A Dehydrogenase: Mechanisms of Substrate Specificity and Implications of Isovaleric Acidemia-Associated Mutations” (Research, 2025).
Positions count from the first letter of the chain named. Names may count otherwise.

What was measured:
[1] = target: T1, human IVD (isovaleryl-CoA dehydrogenase) (Homo sapiens, UniProt P26440); test: cryo-EM structure; format: binding; conditions: noncovalent cofactor, 4 FAD per tetramer; FAD added to buffer; pH 7.4; 2.55 Å
T1 construct: residues 33-426 (transit peptide removed), N-terminal 8xHis tag, pET-28a, E. coli BL21(DE3)
T1 sequence (P26440 33-426): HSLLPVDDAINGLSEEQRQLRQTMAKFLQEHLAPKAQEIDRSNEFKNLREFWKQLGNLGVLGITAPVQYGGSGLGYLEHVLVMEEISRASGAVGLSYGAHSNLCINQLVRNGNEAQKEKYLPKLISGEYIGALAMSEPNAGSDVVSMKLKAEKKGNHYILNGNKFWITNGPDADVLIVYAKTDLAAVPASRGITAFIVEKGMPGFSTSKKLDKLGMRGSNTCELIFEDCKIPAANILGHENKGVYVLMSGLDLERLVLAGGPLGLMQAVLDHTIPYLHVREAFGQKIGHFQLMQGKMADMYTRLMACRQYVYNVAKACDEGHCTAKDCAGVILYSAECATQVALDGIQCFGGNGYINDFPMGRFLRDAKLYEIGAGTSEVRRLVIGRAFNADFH

[2] = target: T2, human IVD (isovaleryl-CoA dehydrogenase) (Homo sapiens, UniProt P26440, E286A); test: surface plasmon resonance; format: binding; conditions: read-out: KDapp
T2 construct: residues 33-426 (transit peptide removed), N-terminal 8xHis tag, pET-28a, E. coli BL21(DE3)
T2 sequence (P26440 33-426 E286A): T1 sequence (P26440 33-426) with E254A

[3] = target: T3, Isovaleryl-CoA dehydrogenase (IVD), human, wild type, residues 33-426 (human), P26440; test: cryo-EM structure; purified IVD from SEC in 50 mM tris-HCl pH 7.4, 150 mM NaCl with added FAD; no acyl-CoA; 2.55 Å; conditions: remark: other sources report otherwise
T3 chain: T1 sequence (P26440 33-426)

[4] = target: the molecule itself; test: cryo-EM structure; purified IVD E286A incubated with isovaleryl-CoA or butyryl-CoA at 37 °C for 15 min, FAD bound; 3.35 and 2.91 Å

## Cc1cc2nc3c(=O)[nH]c(=O)nc-3n(C[C@H](O)[C@H](O)[C@H](O)COP(=O)(O)OP(=O)(O)OC[C@H]3O[C@@H](n4cnc5c(N)ncnc54)[C@H](O)[C@@H]3O)c2cc1C [FAD]
[1]
  cryo-EM structure: resolved in the form of only combining with FAD molecules

## CCCC(=O)SCCNC(=O)CCNC(=O)[C@H](O)C(C)(C)COP(=O)(O)OP(=O)(O)OC[C@H]1O[C@@H](n2cnc3c(N)ncnc32)[C@H](O)[C@@H]1OP(=O)(O)O [butyryl-CoA]
[2]
  Kd: 494 nM

## CC(C)CC(=O)SCCNC(=O)CCNC(=O)[C@H](O)C(C)(C)COP(=O)(O)OP(=O)(O)OC[C@H]1O[C@@H](n2cnc3c(N)ncnc32)[C@H](O)[C@@H]1OP(=O)(O)O [isovaleryl-CoA]
[2]
  Kd: 848 nM

B1: Isovaleryl-CoA dehydrogenase (IVD), human, wild type, residues 33-426, P26440 33-426 (enzyme)
chain: T1 sequence (P26440 33-426)
[3]
  stoichiometry N: 4

B2: Isovaleryl-CoA dehydrogenase (IVD), human, E286A mutant, residues 33-426 (enzyme, UniProt P26440 33-426, looked up)
chain: T1 sequence (P26440 33-426) with E254A
notes: human isovaleryl-CoA dehydrogenase (IVD), residues 33 to 426, catalytic-base mutant made by PCR on the WT plasmid; Used for the cryo-EM structures with isovaleryl-CoA and butyryl-CoA; also called IVD E286A; source: E. coli BL21 (DE3), purified (Ni-NTA, SEC on Superdex 200)
[4]
  binding result: binds
